US8702927B2, “Multiple-electrode and metal-coated probes” (The Trustees Of The University Of Pennsylvania, priority 2009, dated 2014)
“And” between values parts separate entries of the source, which are not always exact repeats. Equal entries are not always repeated.

Experiments:
GABAA receptor = assay: CNP-recorded membrane potential of HT-22 cells during pharmacological stimulation (GABA, bicuculline), current-clamp; type: cell-based, mouse
Description: Y-aminobutyric acid (GABA), a principal inhibitory neurotransmitter in the mammalian central nervous system which acts as an agonist for the membrane-bound GABAA receptor, was administered. When GABA binds to the GABAA receptor, the cell hyperpolarizes as a result of C1-ion influx due to the opening of the ligand-gated C1-ion channel. However, the hyperpolarization can be blocked by perfusing cells with bicuculline (BIC), a competitive antagonist for the GABAA receptor which binds to the GABAA receptor and prevents it from opening even in the presence of GABA.
FIG. 10A illustrates how an HT-22 cell responded when GABA was added to the cell bath (12 mM GABA in bath, arrow).
FIG. 10B represents the opposing membrane responses to such stimuli over time.

HT-22 cells = assay: CNP-recorded membrane potential of HT-22 cells during ionic (K+) enrichment, current-clamp; type: cell-based, mouse; details: for depolarization of membrane potential: KCl added to cell bath; for time for cell to return to its RMP: after KCl
Description: Because the cell membrane is highly permeable to potassium ions (K^+), an increase or decrease in extracellular K+ concentration will, respectively, cause a resting cell to depolarize (membrane potential becoming more positive) or hyperpolarize (membrane potential becoming more negative). Utilizing CNPs, variations in membrane potential were monitored over tens of minutes. FIG. 8A is a recording of membrane potential from an HT-22 cell during perfusion intervals with normal HBSS and K+-enriched HBSS (additional 5 mM K^+). […] After approximately 2 min at higher extracellular K^+, the cell was perfused with normal HBSS and the cell slowly returned to its RMP.
Next, a CNP was used to measure changes in membrane potential during repetitive extracellular administration of KCl [FIG. 8B]. After penetrating the cell, as indicated by the arrow in FIG. 8B, the CNP measured a stable RMP under normal HBSS perfusion (Emp=−68 mV). […] Under constant perfusion in normal HBSS, the membrane potential returned to its original value after […]. The results were reproducible with high fidelity.
FIG. 8C is a representation of potential variations as a function of time during the administration of HBSS and the varied K+-enrichment of HBSS (additional 5 and 15 mM K^+). […] As normal HBSS perfusion brought the bath back to its initial K+ concentration, the cell returned to its RMP in ˜90 seconds.
The mouse hippocampal cell line HT-22 was kindly provided by Dr. David Schubert (The Salk Institute, San Diego, Calif.). Cells were grown in Dulbecco's Modified Eagle Medium (DMEM, high glucose) supplemented with 10% fetal bovine serum (FBS) and 1% antibiotics. The cells were plated on 12 mm cover slips 48 hrs prior to the electrophysiology measurements. The cells on the cover slips were incubated in HBSS (with calcium and magnesium) at room temperature for 10 min prior to measurements. The cover slips were subsequently placed in an open diamond perfision bath (Warner Instruments Corp., RC-22C) positioned on an upright microscope (Nikon eclipse E600FN, 40× water-immersion lens, Burleigh Gibraltar fixed-stage platform) located atop a vibration-isolation table. Cells were routinely perfised with HBSS at a flow rate of 1.0 mllmin.
Membrane potential measurements were recorded with an Axon AxoClamp-2A amplifier equipped with a headstage for high resistance electrodes (Axon HS2-XO.OlMU) and Digidata 1322A digitizer (Axon Instruments/Molecular Devices, Sunnyvale, Calif.). Experimental protocols were controlled and data acquired by a personal computer using the Clampex 8.2 software (Axon Instruments). CNPs were inserted into a standard electrode holder until the metal wire of the holder came in contact with the inner carbon film of the CNP. A slight positive pressure was applied through the holder's perfixion port to keep external solution from filling the hollow CNP by capillarity. A micromanipulator (Narishige MHW-3) was used to manipulate and position the CNP electrodes during the electrophysiology measurements. All the electrical measurements were carried out versus an AgIAgCl reference electrode submerged in HBSS in discontinuous current clamp @CC) mode, at zero current, with no capacitance compensation. The CNP potential was nulled (+I-2 mV) with the amplifier offset potential during immersion in HBSS before all electrical measurements. Recorded electrical measurements were not adjusted to compensate for differences in extracellular and intracellular junction potentials.

Row | SMILES | hyperpolarization from the RMP (GABAA receptor; 12 mM GABA in bath, normal HBSS perfusion, FIG. 10A, FIG. 10B) | time for cell to return to its RMP (GABAA receptor; after 12 mM GABA, constant HBSS perfusion) | depolarization of membrane potential (HT-22 cells; additional 5 mM K+, RMP -57 mV, FIG. 8C) [mV] | depolarization of membrane potential (HT-22 cells; additional 15 mM K+, RMP -57 mV, FIG. 8C, FIG. 10B) | depolarization of membrane potential (HT-22 cells; additional 25 mM K+, RMP -68 mV, FIG. 8B) [mV] | time for cell to return to its RMP (HT-22 cells; additional 5 mM K+, normal HBSS perfusion) [s] | time for cell to return to its RMP (HT-22 cells; additional 15 mM K+, HBSS perfusion)
1 | NCCCC(=O)O [GABA, Y-aminobutyric acid] | 10 mV and 12 mV | 30 s and 60 s |  |  |  |  | 
2 | [Cl-].[K+] [KCl, Potassium chloride] |  |  | 10 | 30 mV and 25 mV | 40 | ~90 | ~90 s and 60 s
